The source of these data is patent EP4786465A1, “NOVEL COMPOUND, AND PHARMACEUTICAL COMPOSITION FOR PREVENTION OR TREATMENT OF CANCER OR TUMORS COMPRISING SAME” (Daewoong Pharmaceutical Co., Ltd., priority 2023, dated 2025).

Each structure is given as a SMILES string.

Holding throughout (format): cell-based
For test [1], the system named is transcription factor TEAD. Nature of the test: Activity inhibition test of transcription factor TEAD (ONE-Glo Luciferase assay, Hippo Pathway TEAD reporter-MCF7 recombinant cell line). The settings on record: Homo sapiens; TEAD Reporter-MCF7 cells, 24 hours treatment, luciferase luminescence. How it is done:
The transcription factor TEAD activity of the compounds prepared in the Examples was measured by the ONE-Glo™ Luciferase assay (Promega, Catalog #E6110) method using the Hippo Pathway TEAD reporter-MCF7 recombinant cell line (BPS Bioscience, Catalog #60618). Specifically, the TEAD Reporter-MCF7 cell line contains the firefly luciferase gene whose expression is regulated under the control of TEAD response elements in the MCF7, which is a human breast cancer cell line. In the cell line, a non-phosphorylated YAP/TAZ exists in the nucleus in a non-stressed condition, which continuously induces expression of the luciferase reporter. TEAD Reporter-MCF7 cells were prepared in 100 µL of cell culture medium (MEM medium, 10% FBS, 1% P/S, 400 µg/mL Geneticin, 1% […], 1 mM NA pyruvate, 10 µg/mL Insulin) in a white clear bottom 96-well microplate. The prepared plate was incubated in a 5% CO2 incubator at 37°C for 24 hours, and then the previously prepared compounds of Examples were finally treated at concentrations of 0.0005, 0.005, 0.05, 0.5 and 5 µM, which were repeated three times for all treatment solutions. The plates treated with the compounds of Examples were incubated in a 5% CO2 incubator at 37°C for 24 hours. 100 µL/well of the substrate aqueous solution containing luciferin was added to a white clear-bottom 96 well microplate, thereby initiating an enzyme reaction. The reaction was performed at room temperature for 5 minutes, and the luminescence (integration time 1000 ms) was measured using a Flexstation3 multi-mode microplate reader. In accordance with the instructions for the ONE-Glo™ Luciferase Assay, the luciferase enzyme activity, which represents the activity of the transcription factor TEAD, was measured by a chemiluminescence method, and the inhibitory activity of the compound according to the present disclosure was calculated. The results of each compound were analyzed using Microsoft Excel, and the IC50 values were calculated by GraphPad Prism software.

For the next test, the system named is NCI-H28. The test is described as follows: Cell growth inhibition test (CellTiter-Glo Luminescent Cell Viability), NCI-H28. The settings on record: Homo sapiens; NCI-H28 cells, CellTiter-Glo; read-out: growth IC50 H28. How it is done: (§1) The cell growth for the compounds prepared in Examples was measured by CellTiter-Glo® Luminescednt Cell Viability (Promega, Catalog #G7571) method using NCI-H226 (addexbio), NCI-H28 (Korea Cell Line Bank) cell lines. This evaluation method is a method in which when luciferase enzyme is activated by ATP flowing out from living cells, it reacts with a luciferin substrate, and the enzyme activity at this time is measured to confirm cell viability.
(§2) Specifically, NCI-H226, and NCI-H28 cells were prepared in 100 µL of cell culture medium (RPMI medium, 10% FBS, 1% P/S, 4.5 g/L D-Glucose, 2.383 g/L HEPES Buffer, L-Glutamine, 1.5 g/L Sodium Bicarbonate, 110 mg/L Sodium pyruvate) in a white clear bottom 96-well microplate. The prepared plate was incubated in a 5% CO2 incubator at 37°C for 24 hours, and then the previously prepared compounds of Examples were finally treated at concentrations of 0.0005, 0.005, 0.05, 0.5 and 5 µM, which was repeated three times for all treatment solutions. The plates treated with the compounds of Examples were incubated in a 5% CO2 incubator at 37°C. 100 µL/well of the substrate aqueous solution containing luciferin was added to a white clear-bottom 96 well microplate, thereby initiating an enzyme reaction. The reaction was performed at room temperature in the dark for 10 minutes, and the luminescence was measured using a Flexstation3 multi-mode microplate reader. In accordance with the instructions for the CellTiter-Glo™ Luminescednt Cell Viability, the luciferase enzyme activity, which represents the amount of ATP, was measured by a chemiluminescence method, and the inhibitory activity of the compounds according to the present disclosure was calculated. The results of each compound were analyzed using Microsoft Excel, and the IC50 values were calculated using GraphPad Prism software.

The next test concerns NCI-H226. Nature of the test: Cell growth inhibition test (CellTiter-Glo Luminescent Cell Viability), NCI-H226. The settings on record: Homo sapiens; NCI-H226 cells, CellTiter-Glo; read-out: growth IC50 H226. The method, then:
as §1, §2

In the case of `C=CC(=O)N1CCc2c(ccc(Nc3ccc(F)cc3)c2-c2cn(C)cn2)C1` [Example 10, 1-(6-((4-fluorophenyl)amino)-5-(1-methyl-1H-imidazol-4-yl)-3,4-dihydroisoquinolin-2(1H)-yl)prop-2-en-1-one], the IC50 in test [1] was 49.6 nM; in the test with NCI-H28 it was 1500 nM; with NCI-H226, 100 nM.
On to `C=CC(=O)N1CCc2c(ccc(Nc3ccc(C(F)(F)F)cc3)c2-c2cn(C)cn2)C1` [Example 3, 1-(5-(1-methyl-1H-imidazol-4-yl)-6-((4-(trifluoromethyl)phenyl)amino)-3,4-dihydroisoquinolin-2(1H)-yl)prop-2-en-1-one], for which the IC50 was determined as 25.5 nM in test [1], 951 nM in the test on NCI-H28 and 9.8 nM in the test on NCI-H226.
On to `C=CC(=O)N1CCc2c(ccc(Nc3ccc(C(F)(F)F)c(F)c3)c2-c2cn(C)cn2)C1` [Example 9, 1-(6-((3-fluoro-4-(trifluoromethyl)phenyl)amino)-5-(1-methyl-1H-imidazol-4-yl)-3,4-dihydroisoquinolin-2(1H)-yl)prop-2-en-1-one], for which the IC50 worked out at 34.2 nM in test [1], 778 nM in the test with NCI-H28 and 36 nM in the test on NCI-H226.
The corresponding values for `CNS(=O)(=O)N1CCc2c(ccc(Nc3ccc(C(F)(F)F)cc3)c2-c2cn(C)cn2)C1` [Example 4, N-methyl-5-(1-methyl-1H-imidazol-4-yl)-6-((4-(trifluoromethyl)phenyl)amino)-3,4-dihydroisoquinoline-2(1H)-sulfonamide] are 4840 nM, 10000 nM and 1350 nM.
